Laboratory results reported in ChEMBL document CHEMBL1764992, “RNA-binding and viral reverse transcriptase inhibitory activity of a novel cationic diamino acid-based peptide” (J Med Chem, 2011).
Calls of active or inactive are those of the source. The rule behind the calls is not given here.

Key:
[1] = test system: Nucleic Acid; assay: Binding affinity to dT12 DNA by circular dichroism spectra analysis; format: nucleic-acid assay
[2] = test system: Nucleic Acid; assay: Binding affinity to dT12 DNA by ultraviolet spectra analysis; format: nucleic-acid assay
[3] = test system: Nucleic Acid; assay: Binding affinity to poly(U) RNA by circular dichroism spectra analysis; format: nucleic-acid assay
[4] = test system: Nucleic Acid; assay: Binding affinity to poly(U) RNA by ultraviolet spectra analysis; format: nucleic-acid assay
[5] = test system: Moloney murine leukemia virus; assay: Inhibition of Moloney murine leukemia virus reverse transcriptase at 0.5 ug after 1 hr by RT-PCR analysis relative to control
[6] = test system: Moloney murine leukemia virus; assay: Inhibition of Moloney murine leukemia virus reverse transcriptase at 1 ug after 1 hr by RT-PCR analysis relative to control
[7] = biological target: Human immunodeficiency virus type 1 reverse transcriptase (Human immunodeficiency virus 1) (UniProt Q72547); assay: Inhibition of HIV1 reverse transcriptase at 0.5 to 1 ug after 1 hr by RT-PCR analysis relative to control

SMILES: Cc1cn(CC(=O)NCCCC[C@H](N)C(=O)NCC[C@H](N)C(=O)NCCCC[C@H](N)C(=O)NCC[C@H](N)C(=O)NCCCC[C@H](N)C(=O)NCC[C@H](N)C(=O)NCCCC[C@H](N)C(=O)NCC[C@H](N)C(=O)NCCCC[C@H](N)C(=O)NCC[C@H](N)C(=O)NCCCC[C@H](N)C(=O)NCC[C@H](N)C(=O)NCCCC[C@H](N)C(=O)NCC[C@H](N)C(=O)NCCCC[C@H](N)C(=O)NCC[C@H](N)C(=O)NCCCC[C@H](N)C(N)=O)c(=O)[nH]c1=O
- Activity [1]: inactive
- Activity [2]: inactive
- Activity [3]: Active
- Activity [4]: Active
- inhibition [5]: 30%
- inhibition [6]: 18%
- inhibition [7]: 60%
